In ChEMBL document CHEMBL4049391, “Vicinal diaryl azole-based urea derivatives as potential cholesterol lowering agents acting through inhibition of SOAT enzymes” (Eur J Med Chem, 2017):
Calls of active or inactive are those of the source. The rule behind the calls is not given here.

Tests used:
Rattus norvegicus [1] = experiment: Anti-hypercholesterolemic activity in poloxamer-407-induced Wistar rat lipoprotein lipase inhibition model assessed as fold change in triglyceride level at 20 mg/kg administered as single dose via oral gavage pretreated for 4 hrs followed by poloxamer-407 induction measured over 24 hrs (reference value: 80); type: functional
Rattus norvegicus [2] = experiment: Anti-atherosclerosis activity in po dosed high cholesterol diet-induced Wistar rat atherogenesis model assessed as reduction in serum total cholesterol level administered once daily measured after 4 weeks; type: functional, organism-based
Rattus norvegicus [3] = experiment: Anti-atherosclerosis activity in high cholesterol diet-induced Wistar rat atherogenesis model assessed as effect on serum total cholesterol level at 30 mg/kg, po administered once daily measured after 4 weeks; type: functional
Rattus norvegicus [4] = experiment: Anti-atherosclerosis activity in high cholesterol diet-induced Wistar rat atherogenesis model assessed as reduction in LDL-cholesterol level at 10 mg/kg, po administered once daily measured after 4 weeks; type: functional, organism-based
Rattus norvegicus [5] = experiment: Anti-atherosclerosis activity in high cholesterol diet-induced Wistar rat atherogenesis model assessed as lipid accumulation lesion area in thoracic aorta at 30 mg/kg, po administered once daily measured after 4 weeks by Sudan red 4 staining based photographic method relative to control; type: functional
Rattus norvegicus [6] = experiment: Acute toxicity in Wistar rat assessed as change in body weight at 2000 mg/kg, po administered as single dose measured at 6 hrs post dose; type: organism-based; conditions: in vivo
Rattus norvegicus [7] = experiment: Acute toxicity in Wistar rat assessed as effect on skin color at 2000 mg/kg, po administered as single dose measured up to 14 days; type: organism-based; conditions: in vivo, 336 h
Rattus norvegicus [8] = experiment: Acute toxicity in Wistar rat assessed as effect on fur color at 2000 mg/kg, po administered as single dose measured up to 14 days; type: organism-based; conditions: in vivo, 336 h
Rattus norvegicus [9] = experiment: Acute toxicity in Wistar rat assessed as macroscopic lesions in liver at 2000 mg/kg, po administered as single dose measured up to 14 days; type: organism-based; conditions: in vivo, 336 h
Rattus norvegicus [10] = experiment: Acute toxicity in Wistar rat assessed as effect on mucus of lungs at 2000 mg/kg, po administered as single dose measured up to 14 days; type: organism-based; conditions: in vivo, 336 h
Rattus norvegicus [11] = experiment: Acute toxicity in Wistar rat assessed as macroscopic lesions in kidney at 2000 mg/kg, po administered as single dose measured up to 14 days; type: organism-based; conditions: in vivo, 336 h

**Q.** For CCCCNC(=O)Nc1ccc(-c2sc(C)nc2-c2ccc(C)cc2)cc1, which “fold change (FC)” value (Rattus norvegicus [1]) is on record?
**A.** 20

**Q.** And the Activity (Rattus norvegicus [2])?
**A.** Dose-dependent effect

**Q.** What about the Activity (Rattus norvegicus [3]) of the same compound?
**A.** 138 mg/dL

**Q.** What about the Activity (Rattus norvegicus [4]) of the same compound?
**A.** inactive

**Q.** And the “fold change (FC)” value (Rattus norvegicus [5])?
**A.** 3

**Q.** What about the Activity (Rattus norvegicus [6]) of the same compound?
**A.** Non-Toxic

**Q.** And the Activity (Rattus norvegicus [7])?
**A.** Non-Toxic

**Q.** And the Activity (Rattus norvegicus [8])?
**A.** Non-Toxic

**Q.** And the Activity (Rattus norvegicus [9])?
**A.** Non-Toxic

**Q.** What about the Activity (Rattus norvegicus [10]) of the same compound?
**A.** Non-Toxic

**Q.** And the Activity (Rattus norvegicus [11])?
**A.** Non-Toxic
